Source: patent US20210379046A1, “Methods of Treating Diseases Using Kinase Modulators” (Memorial Sloan Kettering Cancer Center, priority 2018, published 2021)
“Also recorded” adds a separate entry of the source.

Key:
[1] = system: SKOV3 cells; experiment: Surface HLA on SKOV3 cells; assay type: cell-based, human
Method: (§1) If adherent cells, they were seeded one day before treatment.
Experiments in this Example were performed as described in Section 6.1.2.

[2] = system: TPC1 cells; experiment: ADCC chromium-51 release assay with ESK1 and human PBMCs on inhibitor-pretreated TPC1 cells; assay type: cell-based; conditions: TPC1 pretreated 72 hrs with 100 nM trametinib, at 3 or 4 E:T ratios
Method: Peripheral blood mononuclear cells were derived from healthy donors by Ficoll density centrifugation after receiving informed consent on Memorial Sloan Kettering Institutional Review board-approved protocols. TPC1 cells treated with RET inhibitor drugs and DMSO control were labeled with chromium-51 and co-cultured with PBMCs and ESK (or its isotype control, hIgG1). Different E:T ratios were used and after 5 hrs of incubation at 37° C., the supernatant was harvested and chromium levels were measured by Chromium-51 release assay (Perkin Elmer). Higher chromium levels indicated higher levels of cytotoxicity.
After the addition of ESK and peripheral blood mononuclear cells for 5 hrs, chromium release was measured.
For each experiment reported, fresh peripheral blood mononuclear cells were derived from a healthy donor by Ficoll density centrifugation after receiving informed consent on Memorial Sloan Kettering Institutional Review Board-approved protocols. […] Cells were then labeled with 1 uCi/well chromium-51 for 1 hr at 37° C. […] Different effector:target ratios were used and after 5 hrs of incubation at 37° C., the supernatant was harvested and chromium levels were measured through standard chromium-51 release assay on a Top Count machine (Perkin Elmer).

[3] = system: LC-2/ad cells; experiment: Flow cytometry of cell surface HLA on LC-2/ad cells; assay type: cell-based, human; conditions: 72 hrs
Method: as §1

[4] = system: TT cells; experiment: Flow cytometry of cell surface HLA on TT cells; assay type: cell-based, human; conditions: 72 hrs
Method: as §1

[5] = system: Human T cells; experiment: IFN-gamma ELISpot of peptide stimulated T cells; assay type: cell-based; conditions: T cells of HLA-A*02:01 positive healthy donors, autologous CD14+ cells presenting peptide
Excerpt: Peripheral blood mononuclear cells were again derived from healthy donors after receiving informed consent (see above). T cells were isolated by Ficoll density centrifugation and stimulated with pools of peptides that were selected from the population of: (1) new peptides that appeared after RET inhibitor treatment, (2) peptides found on cells before RET inhibitor treatment, and (3) irrelevant peptides not found on the target cells. CD14^+ cells were isolated from PBMCs by negative immunomagnetic cell separation using an isolation kit (Miltenyi Biotec). CD14 cells were used for stimulation in week one and autologous dendritic cells were generated for use thereafter. The purity of the cells was always more than 98%. Monocyte-derived dendritic cells (DCs) were generated from CD14+ cells, by culturing the cells in RPMI 1640 medium supplemented with 1% AP, 500 units/mL recombinant IL-4, and 1,000 units/mL GM-CSF. On days 2 and 4 of the incubation, fresh medium with IL-4 and GM-CSF was either added or replaced half of the culture medium. On day 6, maturation cytokine cocktail was added (IL-4, GM-CSF, 500 IU/mL IL-1, 1,000 IU/mL IL-6, 10 ng/ml TNF-α, and 1 ug/mL PGE-2).
An interferon-gamma ELISpot was performed at the beginning of week three. For this HA-Multiscreen plates (Millipore) were coated with 100 uL of mouse anti-human IFN-gamma antibody (10 ug/mL; clone 1-D1K, Mabtech #3420-2A) in PBS, incubated overnight at 4° C., washed with PBS to remove unbound antibody, and blocked with RPMI 1640/10% autologous plasma (AP) for 2 h at 37° C. Purified CD3^+ T cells (>98% pure) were plated with either autologous CD14^+ (10:1 E:APC ratio) or autologous DCs (30:1 E:APC ratio), Various test peptides were added to the wells at 20 ug/mL. Negative control wells contained. APCs and T cells without peptides or with irrelevant peptides. Positive control wells contained T cells plus APCs plus 20 ug/mL phytohemagglutinin (PHA, Sigma). All conditions were done in triplicates. Microtiter plates were incubated for 20 h at 37° C. and then extensively washed with PBS/0.05% Tween and 100 uL/well biotinylated detection antibody against human IFN-γ (2 ug/mL; clone 7-B6-1; Mabtech) was added. Plates were incubated for an additional 2 h at 37° C. and spot development was done as described. Spot numbers were read and determined by Zellnet Consulting In. T cell killing of target cells was measured at week five as described in the section of ADCC above.

[6] = system: Karpas 299 and SUDHL-1 cells; experiment: Sensitivity of ALCL cells to ALK inhibitors; assay type: cell-based, human
[7] = system: pERK in SUDHL-1 cells; experiment: Western blot of pERK in SUDHL-1 cells; assay type: cell-based, human; conditions: SUDHL-1, 3 hrs
Method: (§2) Cells were seeded in a 60 mm dish or 6 well plates. After the appropriate time point, cells were harvested and lysed and protein was quantified by a Lowry assay (Bio-Rad DC Protein Assay; #5000116). Protein levels were normalized and run on SDS PAGE gels (Bio-Rad). Protein was transferred to a nitrocellulose membrane using semi-dry transfer. Membrane was blocked and incubated with respective antibodies. When needed, secondary antibodies with HRP were incubated for 1 hr.
(§3) Cells were seeded in a 60 mm dish or 6 well plates. After the appropriate time point, cells were harvested, lysed in RIPA buffer (Thermo Instruments) and protein concentration was quantified by a Lowry assay (using the Bio-Rad DC Protein Assay; #5000116 on a Spectramax device from Molecular Devices). Protein loading levels were equalized per lane and separated on SDS gels (Bio-Rad). Protein was transferred to a nitrocellulose membrance using semi-dry transfer (BioRad). Membranes were blocked with Omniblock (American Bio) and incubated with respected antibodies. When needed, secondary antibodies with HRP were incubated for 1 hr.

[8] = system: pERK in Karpas 299 cells; experiment: Western blot of pERK in Karpas 299 cells; assay type: cell-based, human; conditions: Karpas 299, 3 hrs
Method: as §2, §3

[9] = system: pERK in H2228 cells; experiment: Western blot of pERK in H2228 cells; assay type: cell-based, human; conditions: H2228, 100 nM
Method: as §2, §3

[10] = system: SUDHL-1 cells; experiment: Flow cytometry of cell surface HLA on SUDHL-1 cells; assay type: cell-based, human; conditions: SUDHL-1, 72 hrs, increasing concentrations
Method: as §1

[11] = system: Karpas 299 cells; experiment: Flow cytometry of cell surface HLA and checkpoint ligands on Karpas 299 cells; assay type: cell-based, human; conditions: for cell surface HLA-A,B,C: Karpas 299, 72 hrs, increasing concentrations
Method: as §1

[12] = system: HLA-A, beta-2-microglobulin, TAP1, TAP2 in Karpas 299 and SUDHL-1 cells; experiment: Western blot and qPCR of HLA and antigen processing machinery in ALCL lines; assay type: cell-based, human; conditions: for HLA and antigen processing machinery transcript levels (qPCR): Karpas 299 and SUDHL-1, 48 hrs
Method: as §2, §3
Data were normalized to baseline expression of each analyzed gene separately.

[13] = system: JAK signaling (pSTAT1) in Karpas299 and TPC1 cells; experiment: IFN-γ stimulation and ruxolitinib control in Karpas299 and TPC1 cells; assay type: cell-based, human
Method: Cells were harvested and stained with anti-HLA-A02 antibody (BB7-FITC) for flow cytometry. […] (B) Karpas299 and TPC1 cells were treated with DMSO, IFN-γ, or IFN-γ and RUX for 72 hours.
Supernatant media were harvested after treatment and analyzed by the Luminex device (Luminex Corporation, Austin, Tex.) for relevant cytokine secretion. […] On the left side of each panel is data after 24 hours. On the right side of each panel is data after 48 hours. […] The data points shown in this figure are in pairs for each condition. The data point pairs for each time point are, from left to right: DMSO, Rux, Alec, IFNg, and IFNg+Rux.

[14] = system: Karpas 299 tumors; experiment: Karpas 299 subcutaneous tumors in mice, tumor HLA and PD-L1 by flow cytometry; assay type: in vivo; conditions: Karpas 299 tumors, daily oral gavage
Method: Female NSG (NOD.Cg-Prkdc^scidIl2rg^tm1Wj1/SzJ) and NRG (NOD.Cg-Rag1^tm1MomIl2rg^tm1Wj1/SzJ) mice were purchased from the Jackson Laboratory or MSKCC breeding facility at 5-10 weeks old. For RET and ALK experiments, 2.5-6×10^6 tumor cells were subcutaneously injected into the flank of mice and when tumors were palpable, mice were treated daily with drug or vehicles through oral gavage. At day 7, tumors were harvested and flow cytometry was run to determine effect of inhibitors on HLA and PD-L1 on the tumor cells.
The highly immunodeficient NRG (NOD-Rag1null IL2rgnull) mice were subcutaneously injected with 2.5×10^6 luciferase tagged TPC1 cells in their right flank. […] Afterwards, cells were immediately harvested and stained with antibodies against HLA-A*02:01 and HLA-ABC.
All animal experiments were conducted in accordance with and the approval of the MSKCC IACUC (Institutional Animal Care and Use Committee) protocols. Female NSG (NOD. Cg-Prkdc^scidIl2rg^tm1Wj1/SzJ) and NRG (NOD.Cg-Rag1^tm1MomIl2rg^tm1Wj1/SzJ) mice were purchased from the Jackson Laboratory at 5-10 weeks old. For experiments in vivo with RET and ALK, 2.5-6×10^6 tumor cells in PBS were subcutaneously injected into the flank of mice. When tumors were palpable (2-3 mm), mice were treated daily with drugs or vehicles through oral gavage of drugs in 200 ul of water. At day 4 or 7, tumors were harvested and flow cytometry was conducted to determine the effect of inhibitors on HLA and PD-L1 on the tumor cells. […] TPC1 cells were transduced with luciferase and GFP on an SFG vector and this allowed gating of the tumor cells in flow cytometry.

Question: How did the HLA upregulation [1] turn out when `CS(=O)(=O)CCNCc1ccc(-c2ccc3ncnc(Nc4ccc(OCc5cccc(F)c5)c(Cl)c4)c3c2)o1` [lapatinib] was run?
Answer: upregulated HLA

Question: `CC(=O)Nc1cccc(-n2c(=O)n(C3CC3)c(=O)c3c(Nc4ccc(I)cc4F)n(C)c(=O)c(C)c32)c1` [trametinib] was tested. Which “improved lysis by ESK1” value [2] did it give?
Answer: about 10%

Question: Which “surface HLA” value [3] does the source give for `COc1cc2ncnc(Oc3cccc(NC(=O)Nc4cc(C(C)(C)C(F)(F)F)on4)c3)c2cc1OC` [CEP-32496] here?
Answer: minimal effects on HLA upregulation; also recorded: Small changes in cell surface HLA

Question: And the “surface HLA” value [4]?
Answer: minimal effects on HLA upregulation; also recorded: Small changes in cell surface HLA

Question: How did the “T cell mediated IFN gamma response (ELISpot)” value [5] turn out when “TYLEKAIKI (control peptide) [TYLEKAIKI (SEQ ID NO:6), control peptide found before drug treatment on TPC1 cells]” was run?
Answer: No response

Question: For “ILQAHLHSL (control peptide) [ILQAHLHSL (SEQ ID NO:8), control peptide found before drug treatment on TPC1 cells]”, which “T cell mediated IFN gamma response (ELISpot)” value [5] is on record?
Answer: No response

Question: With “ILDKKVEKV (control peptide) [ILDKKVEKV (SEQ ID NO:7), control peptide found before drug treatment on TPC1 cells]” as the molecule, how does the “T cell mediated IFN gamma response (ELISpot)” value [5] read?
Answer: No response

Question: Which “sensitivity of cells to ceritinib compared with crizotinib” value [6] does the source give for `Cc1cc(Nc2ncc(Cl)c(Nc3ccccc3S(=O)(=O)C(C)C)n2)c(OC(C)C)cc1C1CCNCC1` [ceritinib] here?
Answer: more sensitive to ceritinib than crizotinib, and died at lower concentrations

Question: And the pERK levels [7]?
Answer: shut down pERK levels

Question: What about the pERK levels [8] of the same molecule?
Answer: shut down pERK levels

Question: What about the pERK levels [9] of the same molecule?
Answer: slightly decreased pERK levels

Question: And the pERK levels ([9]; listed as Ceritinib)?
Answer: minimal changes in pERK levels; also recorded: decreased pERK levels very slightly

Question: And the “cell surface HLA-A,B,C” value [10]?
Answer: cell surface HLA increased in both cell lines in a dose-dependent manner

Question: And the “cell surface HLA-A,B,C” value [11]?
Answer: cell surface HLA increased in both cell lines in a dose-dependent manner

Question: And the “HLA and antigen processing machinery transcript levels (qPCR)” value [12]?
Answer: Increase in RNA levels of HLA and antigen processing machinery

Question: And the “HLA-A and beta-2-microglobulin protein levels (western blot)” value ([12]; Karpas 299 and SUDHL-1, 72 hrs)?
Answer: show increase in HLA-A and beta-2-microglobulin

Question: What does the source list for “IFNγ: interferon gamma used as positive control”?
Answer: phosphorylated STAT1 (pSTAT1) ([13]; Karpas299 and TPC1, IFN-γ or IFN-γ and RUX, 72 hours): upregulated in both cell lines; IL4 and IL6 secretion ([13]; Karpas299 and TPC1, IFNγ 100 ng/ml, ruxolitinib 1000 nm): increased both IL4 and IL6

Question: Which results are given for `C[C@@H](Oc1cc(-c2cnn(C3CCNCC3)c2)cnc1N)c1c(Cl)ccc(F)c1Cl` [crizotinib]?
Answer: tumor PD-L1 levels in vivo [14]: PD-L1 levels decreased with increasing doses; also recorded: PD-L1 levels decreased in vivo; tumor cell surface HLA-A,B,C in vivo [14]: increased slightly in a dose-response manner, though not all mice responded; also recorded: increased modestly in a dose-dependent manner; pERK levels [7]: inhibited pERK expression; pERK levels [8]: dose-related reduction of pERK at 3 hours; also recorded: dose-related, reduction of pERK at 3 hours; pERK levels [9]: did not change pERK levels; pERK levels ([9]; listed as Crizotinib): does not decrease pERK levels; cell surface HLA-A,B,C [10]: increased surface HLA in a dose-related manner; also recorded: increases in cell surface HLA; surface HLA-E levels ([11]; Karpas 299): did not change; HLA levels increase compared to control cells treated with DMSO ([11]; Karpas 299, 1 uM, 72 hour incubation): 4 fold; cell surface HLA-A,B,C [11]: increased levels of surface HLA-A,B,C; also recorded: increased levels of surface HLA class I complexes; also recorded: increases in cell surface HLA; HLA and antigen processing machinery transcript levels (qPCR) [12]: showed increases in HLA and antigen processing machinery transcript levels

Question: How did the “T cell mediated IFN gamma response (ELISpot)” value [5] turn out when “GRKPPLLKK (irrelevant peptide) [GRKPPLLKK (SEQ ID NO:9), irrelevant peptide, negative control]” was run?
Answer: No response
